US20190328869A1, “IMMUNOTHERAPEUTIC PRODUCT AND MDSC MODULATOR COMBINATION THERAPY” (Transgene SA, priority 2016, published 2019)

Key:
[1] = tested on: melanoma; settings: melanoma bearing mice; cited from earlier work
[2] = tested on: HBsAg (AAV2/8-HBV); assay: Serum HBsAg level by ELISA in HBV-persistent mice; format: in vivo, C57BL/6J mice; settings: monotherapy; sildenafil 5, 20 or 80 mg/kg/day D31-59; AdTG18201 D36, 43, 50; up to day 104
Protocol: Graph A illustrates the median level of HBsAg determined in the serum of groups of 10 mice (groups a to h) treated with sildenafil at 5 mg/kg/day (group b), at 20 mg/kg/day (group c), or at 80 mg/kg/day (group d) alone, or with AdTG18201 (group e) alone or with a combination of AdTG18201 and sildenafil (at 5, 20, or 80 mg/kg/day, groups f, g and h, respectively). The control group a is untreated. The Y-axis indicates the median HBsAg level (ng/mL) for each group and the X-axis the time (number of days post-AAV2/8-HBV injection). Graph B illustrates the median level of HBV DNA determined in the serum of the same groups of mice by PCR. The Y-axis indicates the median HBV DNA level (copies/mL) for each group of animals and the X-axis the time (number of days post-AAV2/8-HBV injection). […]
(§1) The HBV persistent mice used in the study were described by Dion et al. (2013, J Virol, 87(10):5554-63). […] This allows the analysis of HBV-specific viral parameters (HBsAg, HBeAg, HBcAg and viremia) as well as immunological read-outs (ICS, ELISpot or humoral immune responses). […]
HBsAg levels in mouse serum were assessed using a commercial ELISA kit (Monolisa HBsAg Ultra, Bio-Rad, France) according to the manufacturer's protocol, except that a standard curve was established, to render the test quantitative. […]

[3] = tested on: HBV-Core-specific and HBV-Polymerase-specific T cells producing IFNγ; assay: IFNγ-ELISpot, HBV-specific T cell responses (Full pool Core, VSA, N13F) in HBV-persistent mice; format: in vivo, C57BL/6J mice; settings: splenocytes, day 76; cutoff 50 spots/10^6 cells; sildenafil 20 mg/kg/day D31-59 or D48-76
Protocol: The capacity of splenocytes to produce IFNγ after different in vitro stimulations was measured by an IFNγ-ELISpot assay at day 76 post AAV2/8-HBV injection. HBV-specific responses were assessed using the HBV-Core peptides (A, Full pool Core), -polymerase specific peptide VSA (B) or N13F (C). Results are shown as the number of spots per 10^6 splenocytes. Each dot represents an individual mouse and thick line represents mean values for each group (+/−SEM). The horizontal gray line represents the technical cutoff value (50 spots/10^6 cells) above which values are considered as positive T cell responses. For groups with a positive T cell response, incidence of mice per group is indicated on the graph.
The capacity of splenocytes to produce IFNγ after different in vitro stimulations was measured by an IFNγ-ELISpot assay at day 76 post AAV2/8-HBV injection. HBV-specific responses were assessed using the HBV-Core peptides (Full pool Core), -polymerase specific peptide VSA or N13F. Shown are mean values of responder mice (>50 spots/10^6 cells) (mean, SEM). […]
as §1

[4] = tested on: tumor-recruited MDSCs; settings: mouse tumor models; cited from earlier work

In the case of `CCCc1nn(C)c2c(=O)nc(-c3cc(S(=O)(=O)N4CCN(C)CC4)ccc3OCC)[nH]c12` [sildenafil, 1-[[3-(4,7-dihydro-1-methyl-7-oxo-3-propyl-1H-pyrazolo[4,3-d]pyrimidin-5-yl)-4-ethoxyphenyl]sulfonyl]-4-methylpiperazine], the “concentration of inflammatory mediators (IL-1β, IL-6, VEGF, GM-CSF, MCP-1) in melanoma lesions” value [1] is listed as “significantly diminished”, the tumor progression [1] is listed as “delay tumor progression” and the “HBsAg median level, course” value [2] is listed as “no significant HBsAg decrease”. For the same compound, the “HBV-specific IFNg producing T responses (Full pool core, VSA, N13F)” value [3] was “did not show any IFNg producing T responses” and the “intratumoral T cell infiltration and activation” value [4] was “enhance intratumoral T cell infiltration and activation”.
